# Experiments:
# [1] = Plasma 17β-oestradiol in post-menopausal women with 60 μg intravaginal ring, 14 days (Example 10); conditions: 60 μg ring, over 14 days
# [2] = In vitro release from rings of varying core length and apparent/standard k value (Crank's equation); assay type: physicochemical; design: Standard k: unit not given here; conditions: for k: in µg/day/mm; for Mean Daily Release (as precursor): 250 ml 1% (w/v) BKC
# Text: Precursor release from a cylindrical device of core design, which comprises a polymer matrix in the form of a core incorporating 17β-oestradiol precursor and a sheath surrounding the core, can be described by Crank's equation: [formula] in which R=precursor release rate (μg/day)
# Crank's equation relates the precursor release rate (R), in sink conditions, to the solubility (C2 S) and diffusibility (D) of the precursor in the polymer matrix, its partition characteristics (π) between the polymer matrix and the dissolution medium; and the ring dimensions (l, b, a). For any given precursor in any given polymer matrix, CS, D and π will be constant and can be grouped together to form the composite constant, k:
# The k value can be empirically derived using Crank's equation in the following manner: [formula]
# The k value is dependent on core length for certain of the 17β-oestradiol precursors (see Example 6 hereinafter). Accordingly, the k value at a core length of 35 mm has been denoted "standard k" value hereinafter.
# Intravaginal drug delivery devices in the form of rings were prepared, each with a ring geometry as described in Table 3, by following the General Method of Manufacture set out hereinabove.
# The dissolution medium was changed daily, following the protocol set out hereinabove. Mean daily release rates from the second week of dissolution experiments were used to determine the apparent k values presented in Table 3.
# It was, therefore, decided to determine k values at a core length of 35 mm and such k values are hereinafter referred to as "standard k" values.
# The standard k value was determined from the mean daily release rates observed in Example 6. The dissolution medium of 1.0% (w/v) of an aqueous solution of benzalkonium chloride was used in respect of the various 17β-oestradiol precursors, so as to ensure sink conditions.
# [3] = In vitro dissolution: mean daily release from full-length-core rings over up to 90 days in three media; assay type: physicochemical; conditions: for Mean Daily Release: 9 × 54 mm ring, core 141 × 2 mm, 37 °C, N = 4
# Text: In all cases the ring geometries comprise a ring of dimensions 9 mm (cross-sectional diameter)×54 mm (outer diameter) and containing a full length core (141 mm) of cross-sectional diameter 2 mm. […] The saline and benzalkonium chloride-containing media were chosen to ensure `sink conditions` in at least one medium for each intravaginal ring. It will be recognised by those skilled in the art that the term `sink conditions` refers to that set of experimental conditions in vitro which effectively simulates the active haemoperfusion that occurs in vivo, and which results in a maximum drug concentration gradient and maximum drug diffusion rate, at any given time, across the aqueous boundary layer. Thus, an in vitro dissolution experiment can be designed such that the solution solubility of the released drug in the dissolution medium is much greater than its bulk concentration in this medium at any given time, for example, by micellar drug solubilisation due to incorporation of a surfactant such as benzalkonium chloride (BKC), at a concentration above its critical micelle concentration. Thus, each ring was suspended by a thread in an individual closed flask containing the dissolution medium, maintained at a constant temperature of 37° C. The contents of the flask were gently agitated in order to prevent the occurrence of a hydrostatic layer on the surface of the ring. After 24 hours, the ring was removed and suspended in a flask of fresh dissolution medium of identical volume by a method identical to that previously described.
# [4] = Silicone solubility at 37 °C in Dow Corning 360 medical fluid; assay type: physicochemical; conditions: organic solvent or mixture, Dow Corning 360 medical fluid, 37 °C, read-out: Silicone solubility
# Description: Silicone solubility was determined at 37° C. in Dow Corning (Trade Mark) 360 medical fluid.
# [5] = Aqueous solubility in distilled water at 20 °C; conditions: water
# in vitro = conditions: human, blood
# [6] = Nominal in vitro daily release from intravaginal rings under sink conditions (1% w/v benzalkonium chloride, 37 °C); assay type: physicochemical; conditions: calculated as anhydrous 17β-oestradiol
# Description: The nominal in vitro release rates set out in Table 1 for the rings of Examples 1-5 were determined under sink conditions of 1% (w/v) benzalkonium chloride. These release rates were determined in the following manner.
# Each ring (n=4) was suspended in the dissolution medium in an individual flask which is then capped, placed in a suitable oven at 37° C. and shaken. The dissolution medium was changed every 24 hours (±30 minutes). An aliquot of the used dissolution medium was analysed by high performance liquid chromatography (HPLC) using reverse phase packing and UV detection (at 235 nm for 17β-oestradiol-3-acetate and for
# . The sensitivity of the original and improved analytical methods is 5 μg/100 ml.
# [7] = Stability during storage (observed in dissolution samples); conditions: dissolution medium samples
smiles,measurement,setting,value
CC(=O)Oc1ccc2c(c1)CC[C@@H]1[C@@H]2CC[C@]2(C)[C@@H](O)CC[C@@H]12 [17β-oestradiol-3-acetate],mean increase in plasma 17β-oestradiol,[1],117.98 pmol/L
same,apparent k value versus core length,"[2]; Table 3 rings, 1% (w/v) BKC",varies with core length
same,Mean Daily Release,"[2]; Table 4, 1.0% (w/v) BKC, core length 35 mm, n = 5",236.66 µg/day
same,Standard k,"[2]; Table 4, core length 35 mm, 1.0% (w/v) BKC",10.017
same,k (standard k),"[2]; Table 5, core length 35 mm",10.017 μg/day/mm
same,k,"[2]; core length 6 mm, 1% (w/v) BKC",12.347
same,Mean Daily Release (as precursor),"[2]; core length 6 mm, n = 5",49.25 µg/day
same,k,"[2]; core length 12 mm, 1% (w/v) BKC",11.517
same,Mean Daily Release (as precursor),"[2]; core length 12 mm, n = 5",91.88 µg/day
same,k,"[2]; core length 25 mm, 1% (w/v) BKC",10.658
same,Mean Daily Release (as precursor),"[2]; core length 25 mm, n = 5",177.15 µg/day
same,k,"[2]; core length 35 mm, 1% (w/v) BKC",10.017
same,Mean Daily Release (as precursor),"[2]; core length 35 mm, n = 5",236.66 µg/day
same,Mean Daily Release,[3]; 0.133% (w/v) BKC,700 μg per day
same,Mean Daily Release,[3]; 0.9% (w/v) saline,350 μg per day
same,Mean Daily Release,[3]; 1.0% (w/v) BKC,850 μg per day
same,release in vitro from intravaginal rings (in words),"[3]; BKC and saline media, ring geometry of Table 2","substantial release, in both BKC and in saline"
same,solubility,[4],186 µg/mL
same,solubility,[5],3.8 µg/mL
same,half-life,in vitro,< 1 min
same,nominal in vitro daily release rate,"[6]; ""60 μg"" ring, core 2×12 mm",57.5 to 62.5 µg
same,nominal in vitro daily release rate,"[6]; ""120 μg"" ring, core 2×24 mm",115 to 125 µg
same,nominal in vitro daily release rate,"[6]; ""240 μg"" ring, core 2×47 mm",230 to 250 µg
same,stability during storage,[7],hydrolysis to 17β-oestradiol during storage

# Reference: patent US5855906A, “Intravaginal drug delivery devices for the administration of 17β-oestradiol precursors” (priority 1994, dated 1999)
